Results from US20130230470A1, “PET FOOD COMPOSITION” (DSM IP ASSETS B.V., priority 2003, published 2013).

Tests used:
[1] = tested on: domestic shorthair (DSH) breed cats; assay: clean tooth model, 28-day feeding study in cats: gingivitis, plaque and calculus indices; format: in vivo; conditions: treatment diet 2.3 g STAY-C 50/kg cat food, 28 days
Protocol: (§1) 18 domestic shorthair (DSH) breed cats (mean age 3.83±1.85 years, mean body weight 4.2+1.1 kg) were divided by age and gender into two equal groups (n=9) to be fed for 28 days with a • control diet or • treatment diet (2.3 g STAY-C® 50/kg cat food) As the “clean tooth” model was used, all cats received a dental cleaning consisting of ultrasonic scaling and, where necessary, using an abrasor after […], before the beginning of the study. The animals were then treated with the diets for 28 days. The analysis of the different indices were carried out according known methods.

[2] = tested on: domestic shorthair (DSH) breed cats; assay: 28-day feeding study in cats: systemic health, body weight, blood counts, serum biochemistry; format: in vivo; conditions: treatment diet 2.3 g STAY-C 50/kg cat food, 28 days
Protocol: as §1

O=C1O[C@H]([C@@H](O)CO)C(O)=C1OP(=O)(O)O.[Na+].[Na+].[Na+] [STAY-C®50, trisodium L-ascorbic acid-2-monophosphate]
Calculus indices, reduction compared to control group [1]: about 14%
Plaque indices [1]: reduced significantly
Gingivitis indices ([1]; control group 28% increase): not increased
changes in systemic health, body weight, blood counts or serum biochemistry [2]: No changes
